Values quoted from earlier work, collected in patent EP3501609A1 (Zentiva K.S., priority 2017, dated 2019).

solubility (pH 1.2): poorly soluble
solubility in water (pH range of 4.5-8): virtually insoluble
SMILES: C=CC(=O)N1CCC[C@@H](n2nc(-c3ccc(Oc4ccccc4)cc3)c3c(N)ncnc32)C1 [ibrutinib form A]
